These results are taken from paper PMC6662757, “A small molecule inhibitor of ER-to-cytosol protein dislocation exhibits anti-dengue and anti-Zika virus activity” (Scientific Reports, 2019).

Each structure is given as a SMILES string.

In one assay the target is T1, Derlin2 (Homo sapiens, UniProt Q9GZP9).
T1 construct: gene DERL2; endogenous protein in HeLa cells, heated in NP-40 lysate; component of the Hrd1 complex
T1 sequence (Q9GZP9 1-239): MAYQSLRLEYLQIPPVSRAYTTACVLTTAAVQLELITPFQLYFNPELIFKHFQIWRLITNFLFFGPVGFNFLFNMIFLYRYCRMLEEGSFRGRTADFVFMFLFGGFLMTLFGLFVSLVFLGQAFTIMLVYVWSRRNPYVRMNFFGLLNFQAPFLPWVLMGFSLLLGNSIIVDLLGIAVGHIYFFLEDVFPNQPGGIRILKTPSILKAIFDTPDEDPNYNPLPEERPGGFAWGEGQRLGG
Description: cellular thermal shift assay (CETSA), immunoblot. In kind it is cell-based. The conditions noted are these: HeLa cells treated with 10 µM CP26, 37 °C, 2 h, then lysed in 0.4% NP-40 and heated 3 min; direct target within the Hrd1 complex not defined. A general note: Immunoblotting shows a protein as a band on a membrane.

In a further assay the target is T2, OS9 (Homo sapiens, UniProt Q13438).
T2 construct: endogenous protein in HeLa cells, heated in NP-40 lysate; component of the Hrd1 complex
T2 sequence (Q13438 26-667): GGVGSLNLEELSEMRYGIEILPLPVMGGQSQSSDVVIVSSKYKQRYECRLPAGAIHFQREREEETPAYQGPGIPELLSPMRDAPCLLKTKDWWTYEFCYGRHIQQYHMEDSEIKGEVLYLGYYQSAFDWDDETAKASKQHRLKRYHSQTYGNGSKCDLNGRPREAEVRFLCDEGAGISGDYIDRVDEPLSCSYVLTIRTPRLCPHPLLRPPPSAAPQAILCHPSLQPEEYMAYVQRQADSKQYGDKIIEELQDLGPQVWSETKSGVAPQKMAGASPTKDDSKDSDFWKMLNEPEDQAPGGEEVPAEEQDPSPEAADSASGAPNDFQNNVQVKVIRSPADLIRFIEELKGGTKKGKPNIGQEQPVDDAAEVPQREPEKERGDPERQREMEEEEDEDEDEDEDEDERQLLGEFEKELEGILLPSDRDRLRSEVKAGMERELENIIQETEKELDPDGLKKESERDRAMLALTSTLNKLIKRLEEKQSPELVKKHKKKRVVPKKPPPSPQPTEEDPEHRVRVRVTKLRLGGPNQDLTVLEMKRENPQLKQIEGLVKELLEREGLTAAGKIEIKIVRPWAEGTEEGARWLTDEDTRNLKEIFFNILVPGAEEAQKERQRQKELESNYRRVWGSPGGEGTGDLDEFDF
Description: cellular thermal shift assay (CETSA), immunoblot. The conditions noted are these: HeLa cells treated with 10 µM CP26, 37 °C, 2 h, then lysed in 0.4% NP-40 and heated 3 min; direct target within the Hrd1 complex not defined. The class given is cell-based.

Turning to `Cc1ccc(C=C2C(Cl)=C(Cl)C(Cl)=C2Cl)cc1` [CP26, 1-methyl-4-[(2,3,4,5-tetrachlorocyclopenta-2,4-dien-1-ylidene)methyl]benzene], the thermal stability increase entry at Derlin2 was “CP26 selectively increased the thermal stability of Derlin2 and OS9”; on OS9, “CP26 selectively increased the thermal stability of Derlin2 and OS9”.
